Experiment [1] deals with T1, Adenosine receptor A1 (Homo sapiens) (UniProt P30542).
T1 sequence (whole entry): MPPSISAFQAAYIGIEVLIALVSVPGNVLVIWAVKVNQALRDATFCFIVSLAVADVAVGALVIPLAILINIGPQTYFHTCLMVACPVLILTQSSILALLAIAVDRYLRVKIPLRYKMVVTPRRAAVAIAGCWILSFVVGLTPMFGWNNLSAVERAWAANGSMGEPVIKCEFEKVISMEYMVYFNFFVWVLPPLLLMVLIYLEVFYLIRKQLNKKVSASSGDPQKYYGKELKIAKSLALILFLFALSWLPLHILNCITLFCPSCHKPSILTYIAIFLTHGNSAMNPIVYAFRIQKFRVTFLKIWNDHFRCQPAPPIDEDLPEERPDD
As to the kind of experiment: Positive allosteric enhancement of human cloned adenosine A1 receptor expressed in CHO cells assessed as inhibition of forskolin-induced cAMP accumulation at 10 uM using [3H]-cAMP by scintillation counting relative to control. It is filed as functional, cell-based. (In general: Cyclic AMP is a second messenger, typically raised through Gs and lowered through Gi signalling.)

Experiment [2] has as its target T1, Adenosine receptor A1 (Homo sapiens). The experiment is described as follows: Positive allosteric enhancement of human cloned adenosine A1 receptor expressed in CHO cells assessed as inhibition of forskolin-induced cAMP accumulation at 100 nM using [3H]-cAMP by scintillation counting relative to control in presence of 1 pM of CCPA. It is filed as functional, cell-based.

For experiment [3] the target is unchanged. The experiment is described as follows: Ratio of PD81723 to compound for positive allosteric enhancement of human cloned adenosine A1 receptor expressed in CHO cells assessed as inhibition of forskolin-induced cAMP accumulation at 10 uM using [3H]-cAMP by scintillation counting. It is filed as functional, cell-based.
Experiment [4] shares this target. The experiment is described as follows: Displacement of [3H]DPCPX from human adenosine A1 receptor expressed in CHO cells at 10 uM after 120 mins by scintillation counting. The class given is cell-based. A general note: Loss of bound radioactivity is the signal in a displacement assay; it reports binding, not function.
Experiment [5] can be described thus: Displacement of [3H]-ZM241385 from human adenosine A2 receptor expressed in CHO cells at 10 uM after 120 mins by scintillation counting. The class given is cell-based.
Experiment [6] concerns the target T2, Adenosine receptor A3 (Homo sapiens) (UniProt P0DMS8).
T2 sequence (whole entry): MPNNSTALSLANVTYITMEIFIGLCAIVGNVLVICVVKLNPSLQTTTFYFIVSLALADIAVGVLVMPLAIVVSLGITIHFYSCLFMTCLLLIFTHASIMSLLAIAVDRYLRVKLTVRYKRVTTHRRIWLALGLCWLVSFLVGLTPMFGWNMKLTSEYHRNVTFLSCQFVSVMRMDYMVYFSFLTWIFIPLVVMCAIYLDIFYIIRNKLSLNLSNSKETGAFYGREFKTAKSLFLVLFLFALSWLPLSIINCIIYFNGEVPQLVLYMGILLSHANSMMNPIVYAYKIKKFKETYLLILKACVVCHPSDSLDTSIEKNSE
As to the kind of experiment: Displacement of [3H]-MRE-3008-F20 from human adenosine A3 receptor expressed in CHO cells at 10 uM after 120 mins by scintillation counting. The class given is cell-based.

Experiment [7] addresses T1, Adenosine receptor A1 (Homo sapiens). As to the kind of experiment: Binding affinity to human adenosine A1 receptor expressed in CHO cells assessed as fold Bmax shift of [3H]-CCPA at 10 uM after 90 mins by [3H]-CCPA binding assay relative to control. It is filed as cell-based.
The target is the same in experiment [8]. As to the kind of experiment: Binding affinity to human adenosine A1 receptor expressed in CHO cells assessed as fold Ki shift of CCPA at 10 uM after 90 mins by [3H]-CCPA displacement assay relative to control. The class given is cell-based.

The source of these data is ChEMBL document CHEMBL3612058, “Synthesis and biological evaluation of a new series of 2-amino-3-aroyl thiophene derivatives as agonist allosteric modulators of the A1 adenosine receptor. A position-dependent effect study” (Eur J Med Chem, 2015).

Take `Cc1ccc(Cc2c(-c3ccccc3)sc(N)c2C(=O)c2ccc(Cl)cc2)cc1`: the inhibition (in general, the relative decrease from the control value, in per cent) in experiment [1] was 56%; in experiment [2], 58%; in experiment [4], less than 10%; in experiment [5], less than 10%; in experiment [6], less than 10%. Moreover, in experiment [3], the Ratio amounted to 3. The fold change (FC) came to 5.6 in experiment [7] and 5.1 in experiment [8].
For `COc1ccc(-c2sc(N)c(C(=O)c3ccc(Cl)cc3)c2Cc2ccc(SC)cc2)cc1`, the inhibition in experiment [1] is 62%; in experiment [2], 62%; in experiment [4] it was less than 10%; in experiment [5], less than 10%; in experiment [6], less than 10%. The Ratio in experiment [3] amounted to 3. In addition, the fold change (FC) is 6.5 in experiment [7] and 6.1 in experiment [8].
In the case of `Nc1sc(-c2ccc(Cl)cc2)c(Cc2ccc(F)cc2)c1C(=O)c1ccc(Cl)cc1`, the inhibition in experiment [1] is 75%; in experiment [2] it was 73%; in experiment [4], less than 10%; in experiment [5], less than 10%; in experiment [6] it was less than 10%. For the same molecule, in experiment [3], the Ratio is 3. Besides, the fold change (FC) amounted to 9.1 in experiment [7] and 9.5 in experiment [8].
Regarding `CSc1ccc(Cc2c(-c3ccc(F)cc3)sc(N)c2C(=O)c2ccc(Cl)cc2)cc1`, the inhibition in experiment [1] is 52%; in experiment [2], 55%; in experiment [4], less than 10%; in experiment [5], less than 10%; in experiment [6], less than 10%. Also, in experiment [3], the Ratio was 3. In addition, the fold change (FC) in experiment [7] turned out to be 5.3; in experiment [8], 5.2.
With `COc1cccc(Cc2c(-c3ccccc3)sc(N)c2C(=O)c2ccc(Cl)cc2)c1`, the inhibition in experiment [1] was 66%; in experiment [2] it was 63%; in experiment [4], less than 10%; in experiment [5], less than 10%; in experiment [6] it was less than 10%. For the same molecule, the Ratio in experiment [3] worked out at 3. Further, the fold change (FC) in experiment [7] is 7.3; in experiment [8] it was 6.9.
For the molecule `CCOc1ccc(Cc2c(-c3ccccc3)sc(N)c2C(=O)c2ccc(Cl)cc2)cc1`, the inhibition in experiment [1] is 68%; in experiment [2], 69%; in experiment [4], less than 10%; in experiment [5], less than 10%; in experiment [6] it was less than 10%. Besides, the Ratio in experiment [3] turned out to be 3. The figures for the fold change (FC) in experiment [7] and in experiment [8] were 9.1 and 8, respectively.
On to `COc1ccc(Cc2c(-c3ccccc3)sc(N)c2C(=O)c2ccc(Cl)cc2)cc1`, for which the inhibition was 71% in experiment [1]; 74% in experiment [2]; less than 10% in experiment [4]; less than 10% in experiment [5]; less than 10% in experiment [6]. In addition, the Ratio in experiment [3] was 3. The fold change (FC) in experiment [7] is 9.4; in experiment [8] it was 8.9.
`Nc1sc(-c2ccccc2)c(Cc2ccc(C(F)(F)F)cc2)c1C(=O)c1ccc(Cl)cc1`: the inhibition is 69% in experiment [1]; 66% in experiment [2]; less than 10% in experiment [4]; less than 10% in experiment [5]; less than 10% in experiment [6]. Further, the Ratio in experiment [3] was found to be 3. The results for the fold change (FC) in experiment [7] and in experiment [8] were 9.1 and 8.9, respectively.
For `Nc1sc(-c2ccccc2)c(Cc2ccc(Cl)cc2)c1C(=O)c1ccc(Cl)cc1`, the inhibition in experiment [1] was 61%; in experiment [2] it was 64%; in experiment [4], less than 10%; in experiment [5] it was less than 10%; in experiment [6], less than 10%. For the same molecule, in experiment [3], the Ratio was found to be 3. Further, the results for the fold change (FC) in experiment [7] and in experiment [8] were 6.4 and 5.6, respectively.
For `COc1ccc(Cc2c(-c3ccc(Cl)cc3)sc(N)c2C(=O)c2ccc(Cl)cc2)cc1`, the inhibition in experiment [1] is 70%; in experiment [2], 67%; in experiment [4], less than 10%; in experiment [5], less than 10%; in experiment [6] it was less than 10%. In addition, in experiment [3], the Ratio was found to be 3. Further, the fold change (FC) in experiment [7] was determined as 8.5; in experiment [8] it was 6.6.
Consider `Nc1sc(-c2ccccc2)c(Cc2ccc(F)cc2)c1C(=O)c1ccc(Cl)cc1`, for which the inhibition in experiment [1] is 58%; in experiment [2], 57%; in experiment [4], less than 10%; in experiment [5] it was less than 10%; in experiment [6], less than 10%. Besides, the Ratio in experiment [3] came to 3. The results for the fold change (FC) in experiment [7] and in experiment [8] were 6.3 and 5.4, respectively.
Turning to `COc1cc(Cc2c(-c3ccccc3)sc(N)c2C(=O)c2ccc(Cl)cc2)cc(OC)c1OC`, the inhibition in experiment [1] was 47%; in experiment [2], 43%; in experiment [4], less than 10%; in experiment [5], less than 10%; in experiment [6], less than 10%. Moreover, the Ratio in experiment [3] was determined as 3. The fold change (FC) in experiment [7] is 4.3; in experiment [8], 3.8.
Turning to `Nc1sc(-c2ccc(F)cc2)c(Cc2ccc(Cl)cc2)c1C(=O)c1ccc(Cl)cc1`, the inhibition was 53% in experiment [1]; 55% in experiment [2]; less than 10% in experiment [4]; less than 10% in experiment [5]; less than 10% in experiment [6]. Also, the Ratio in experiment [3] is 3. Moreover, the fold change (FC) in experiment [7] came out at 5.3; in experiment [8], 4.1.
As to `COc1ccc(-c2sc(N)c(C(=O)c3ccc(Cl)cc3)c2Cc2ccc(Cl)cc2)cc1`, the inhibition is 49% in experiment [1]; 48% in experiment [2]; less than 10% in experiment [4]; less than 10% in experiment [5]; less than 10% in experiment [6]. Further, the Ratio in experiment [3] is 3. The results for the fold change (FC) in experiment [7] and in experiment [8] were 5 and 3.9, respectively.
For the molecule `COc1ccc(Cc2c(-c3ccc(OC)cc3)sc(N)c2C(=O)c2ccc(Cl)cc2)cc1`, the inhibition in experiment [1] is 52%; in experiment [2] it was 50%; in experiment [4], less than 10%; in experiment [5] it was less than 10%; in experiment [6], less than 10%. In addition, the Ratio in experiment [3] was 3. The fold change (FC) stood at 5.1 in experiment [7] and 4.6 in experiment [8].
For the molecule `COc1ccc(-c2sc(N)c(C(=O)c3ccc(Cl)cc3)c2Cc2ccccc2)cc1`, the inhibition in experiment [1] was 46%; in experiment [2] it was 47%; in experiment [4], less than 10%; in experiment [5], less than 10%; in experiment [6] it was less than 10%. Moreover, the Ratio in experiment [3] is 3. The fold change (FC) worked out at 4.8 in experiment [7] and 3.5 in experiment [8].
With `Cc1ccc(Cc2c(-c3ccc(Cl)cc3)sc(N)c2C(=O)c2ccc(Cl)cc2)cc1`, the inhibition is 71% in experiment [1]; 69% in experiment [2]; less than 10% in experiment [4]; less than 10% in experiment [5]; less than 10% in experiment [6]. Also, the Ratio in experiment [3] was 3. Further, the fold change (FC) in experiment [7] was 8.6; in experiment [8] it was 7.2.
With `Nc1sc(-c2ccccc2)c(Cc2ccc(OC(F)(F)F)cc2)c1C(=O)c1ccc(Cl)cc1`, the inhibition is 68% in experiment [1]; 69% in experiment [2]; less than 10% in experiment [4]; less than 10% in experiment [5]; less than 10% in experiment [6]. In addition, the Ratio in experiment [3] worked out at 3. In addition, the fold change (FC) came out at 8.2 in experiment [7] and 6.6 in experiment [8].
In the case of `CSc1ccc(Cc2c(-c3ccccc3)sc(N)c2C(=O)c2ccc(Cl)cc2)cc1`, the inhibition in experiment [1] was 63%; in experiment [2], 65%; in experiment [4], less than 10%; in experiment [5], less than 10%; in experiment [6], less than 10%. Moreover, in experiment [3], the Ratio stood at 3. For the same molecule, the fold change (FC) in experiment [7] turned out to be 6.6; in experiment [8] it was 6.3.
On to `CC(C)Oc1ccc(Cc2c(-c3ccccc3)sc(N)c2C(=O)c2ccc(Cl)cc2)cc1`, for which the inhibition in experiment [1] is 65%; in experiment [2], 67%; in experiment [4], less than 10%; in experiment [5], less than 10%; in experiment [6], less than 10%. Further, the Ratio in experiment [3] was 3. The results for the fold change (FC) in experiment [7] and in experiment [8] were 7.6 and 5.8, respectively.
